# Literature values as cited in patent publication US7247752B2, “Methods for the synthesis of astaxanthin” (Cardax Pharmaceuticals, Inc., priority 2004, dated 2007).
# Tested on: transformed cells as well as normal prostatic epithelium
# Conditions: alone and/or in combination with other antioxidants (e.g. vitamin E)
structure (smiles),measurement,value
CC(C)=CCC/C(C)=C/C=C/C(C)=C/C=C/C(C)=C/C=C/C=C(C)/C=C/C=C(C)/C=C/C=C(\C)CCC=C(C)C [lycopene],growth inhibition of cultured human cells,growth inhibitory
